Reference: ChEMBL document CHEMBL1201862, “PubChem BioAssay data set” (2004)
The source made the active and inactive calls. Rule as the data show it, for most assays here: actives have a measured EC50 and inactives only a lower limit.

Tests used:
Streptococcus [1] = test: Group A Streptococcus viability loss, dose response, counter-screen for streptokinase expression inhibitor project, luminescence, BacTiterGlo (AID 1915); type: functional, organism-based;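 also: potency for reduction of bacterial viability or growth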
Streptokinase A = molecular target: T1, Streptokinase A (Streptococcus pyogenes serotype M1, UniProt P10520); test: S. pyogenes streptokinase expression inhibitors, potency, dose response, plasminogen activation absorbance, OD405 (AID 1914); type: functional, Streptococcus pyogenes M1 GAS;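 also: secreted streptokinase activity via plasminogen activation per viability signal from cell pellet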
T1 sequence (P10520 whole entry): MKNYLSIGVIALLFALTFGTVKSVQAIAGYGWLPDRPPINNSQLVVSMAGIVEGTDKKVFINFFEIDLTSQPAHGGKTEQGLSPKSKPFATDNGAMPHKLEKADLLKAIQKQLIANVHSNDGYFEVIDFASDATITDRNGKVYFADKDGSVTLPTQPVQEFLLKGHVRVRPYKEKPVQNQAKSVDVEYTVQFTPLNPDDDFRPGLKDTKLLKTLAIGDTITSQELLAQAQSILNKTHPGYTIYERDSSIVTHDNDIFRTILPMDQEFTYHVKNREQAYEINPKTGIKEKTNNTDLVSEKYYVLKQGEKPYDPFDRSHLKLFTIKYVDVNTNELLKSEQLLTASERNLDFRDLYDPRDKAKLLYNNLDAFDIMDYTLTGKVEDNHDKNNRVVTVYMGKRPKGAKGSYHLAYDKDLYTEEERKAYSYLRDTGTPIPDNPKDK

[2] = test system: Streptococcus sp. 'group A'; test: growth inhibition of control SK(-) GAS strain, dose response, counter-screen for streptokinase expression inhibitor project, luminescence, kanamycin, BacTiterGlo, confirmation (AID 1900); type: functional, organism-based
Streptococcus [3] = test: Luminescence Microorganism-Based Dose Response Follow up to Identify Compounds Cytotoxic to Streptococcus. [Related pubchem assays: 1677 (Project Summary), 1915, 1914, 1902 (Retest at Dose), 1900 (Counter Screen), 1662 (Primary HTS)]; type: functional, organism-based
[4] = molecular target: T2, Endoribonuclease toxin MazF (Escherichia coli K-12, UniProt P0AE70); test: MazF toxin RNase activators, dose response, biochemical, fluorescence, single-stranded RNA substrate, uHTS hits (AID 588481); type: functional
T2 sequence (P0AE70 whole entry): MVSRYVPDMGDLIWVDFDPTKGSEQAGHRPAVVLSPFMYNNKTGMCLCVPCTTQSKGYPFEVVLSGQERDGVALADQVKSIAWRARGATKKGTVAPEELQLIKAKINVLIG

[5] = molecular target: T2, Endoribonuclease toxin MazF; test: fluorescent RNA oligo signal without MazF, dose response, counter-screen for MazEF activator project, biochemical, fluorescence, single-stranded RNase substrate (AID 588502); type: functional
[6] = molecular target: T3, Zinc finger protein mex-5 (Caenorhabditis elegans, UniProt Q9XUB2); test: MEX-5/TCR-2 RNA interaction inhibitors, dose response, biochemical, C. elegans, fluorescence polarization (AID 1960)
T3 sequence (Q9XUB2 whole entry): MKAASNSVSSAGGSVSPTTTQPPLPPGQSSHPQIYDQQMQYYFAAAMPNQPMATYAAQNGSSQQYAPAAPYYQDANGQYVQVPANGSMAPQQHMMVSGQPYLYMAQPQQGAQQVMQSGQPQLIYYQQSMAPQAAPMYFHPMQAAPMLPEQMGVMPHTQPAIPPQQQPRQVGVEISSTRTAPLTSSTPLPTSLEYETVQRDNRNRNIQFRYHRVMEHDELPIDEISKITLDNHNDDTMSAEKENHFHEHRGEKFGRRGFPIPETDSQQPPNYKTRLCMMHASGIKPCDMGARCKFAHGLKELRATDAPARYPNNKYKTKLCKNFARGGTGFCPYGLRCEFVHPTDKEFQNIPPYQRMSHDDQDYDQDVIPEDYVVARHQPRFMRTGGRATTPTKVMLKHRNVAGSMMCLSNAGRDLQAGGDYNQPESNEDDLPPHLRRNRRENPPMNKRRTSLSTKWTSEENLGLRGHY

[7] = molecular target: T4, Heat shock 70 kDa protein 1A (Homo sapiens, UniProt P0DMV8); test: Hsp70 inhibitors, probe displacement, primary screen, biochemical, fluorescence polarization (AID 583)
[8] = molecular target: T4, Heat shock 70 kDa protein 1A; test: Hsp70 inhibitors, biochemical, TR-FRET (AID 786)
[9] = molecular target: T5, RNA-binding protein pos-1 (Caenorhabditis elegans, UniProt G5EF15); test: inhibitors of POS-1/mex-3 RNA binding, dose response, biochemical, fluorescence polarization (AID 1964);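 also: purified POS-1 fused to maltose binding protein made in E. coli; potency of compounds blocking POS-1 binding to fluorescent RNA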
T5 sequence (G5EF15 whole entry): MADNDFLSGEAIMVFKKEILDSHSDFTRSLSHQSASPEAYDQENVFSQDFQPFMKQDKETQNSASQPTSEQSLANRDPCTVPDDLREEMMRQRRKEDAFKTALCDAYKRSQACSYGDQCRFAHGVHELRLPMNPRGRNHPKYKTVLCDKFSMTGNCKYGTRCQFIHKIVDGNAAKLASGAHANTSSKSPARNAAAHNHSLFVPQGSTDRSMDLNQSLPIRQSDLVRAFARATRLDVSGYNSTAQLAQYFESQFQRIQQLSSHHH

[10] = cytotoxicity toward NIH3T3 fibroblasts, dose response, counter-screen, cell-based, ATP luminescence, mouse fibroblasts (AID 2010); type: functional;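 also: cells exposed to compound for about 90 hours before reading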
Protein RecA = molecular target: T6, Protein RecA (Mycobacterium tuberculosis, UniProt P9WHJ3); test: Fluorescence Cell-Free Homogeneous Dose Retest to Identify Inhibitors of RecA-Intein Splicing Activity. [Related pubchem assays (depositor defined):AID2097, AID2223, AID489010, AID492950]; type: functional
T6 sequence (P9WHJ3 whole entry): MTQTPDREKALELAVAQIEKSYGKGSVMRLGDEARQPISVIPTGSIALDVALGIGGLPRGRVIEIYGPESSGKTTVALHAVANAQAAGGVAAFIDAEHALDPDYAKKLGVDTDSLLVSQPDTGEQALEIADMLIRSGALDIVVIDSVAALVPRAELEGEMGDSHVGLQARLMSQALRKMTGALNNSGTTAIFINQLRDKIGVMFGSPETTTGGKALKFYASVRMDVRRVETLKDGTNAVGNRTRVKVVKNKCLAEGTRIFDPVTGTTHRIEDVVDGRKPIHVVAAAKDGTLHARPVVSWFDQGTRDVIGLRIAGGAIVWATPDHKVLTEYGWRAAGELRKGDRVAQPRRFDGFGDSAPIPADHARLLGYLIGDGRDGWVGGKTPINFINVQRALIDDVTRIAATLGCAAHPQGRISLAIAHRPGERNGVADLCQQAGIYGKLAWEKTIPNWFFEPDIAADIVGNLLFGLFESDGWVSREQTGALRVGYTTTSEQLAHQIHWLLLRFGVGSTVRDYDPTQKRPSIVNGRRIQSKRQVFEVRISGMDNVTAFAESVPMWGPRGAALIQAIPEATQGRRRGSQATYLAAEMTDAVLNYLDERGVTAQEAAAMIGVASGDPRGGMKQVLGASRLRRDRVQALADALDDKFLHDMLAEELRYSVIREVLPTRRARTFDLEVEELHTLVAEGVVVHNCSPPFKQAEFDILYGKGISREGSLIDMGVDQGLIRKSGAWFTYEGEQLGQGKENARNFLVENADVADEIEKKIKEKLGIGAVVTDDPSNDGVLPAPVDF

[11] = cytotoxicity toward DRD oncogenic fibroblasts, dose response, cell-based, non-viral oncogenic, luminescence (AID 1934); type: functional; conditions: Homo sapiens
BJ [12] = test: cytotoxicity toward BJ-TERT-LT-ST fibroblasts, dose response, cell-based, RAS-independent, luminescence (AID 1935); type: functional; conditions: Homo sapiens;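 also: BJ fibroblasts immortalized with TERT plus LT and ST oncogenes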
Wee1-like protein kinase = Wee1-like protein kinase (Homo sapiens, UniProt P30291); test: Dose Response Cell-based Assay for Inhibitors of Wee1 Degradation. [Related pubchem assays: 1410, 1321 ]; type: functional
BJ [13] = test: cells; type: functional, cell-based; conditions: Homo sapiens
[14] = molecular target: E3 ubiquitin-protein ligase Mdm2 (Homo sapiens, UniProt Q00987); test: enhancers of MDM2-luciferase reporter signal, concentration-effect titration, project on inhibitors of MDM2 ubiquitin ligase, cellular assay, luminescent readout, 384-well plate format (AID 1394); type: functional;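 also: MDM2 E3 inhibitors raise luminescence so EC50 is for signal enhancement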
[15] = molecular target: T7, Replicative DNA helicase DnaB (Mycobacterium tuberculosis, UniProt P9WMR3); test: DnaB intein splicing inhibitors, dose response, biochemical, cell-free fluorescence (AID 449749); type: functional
T7 sequence (P9WMR3 whole entry): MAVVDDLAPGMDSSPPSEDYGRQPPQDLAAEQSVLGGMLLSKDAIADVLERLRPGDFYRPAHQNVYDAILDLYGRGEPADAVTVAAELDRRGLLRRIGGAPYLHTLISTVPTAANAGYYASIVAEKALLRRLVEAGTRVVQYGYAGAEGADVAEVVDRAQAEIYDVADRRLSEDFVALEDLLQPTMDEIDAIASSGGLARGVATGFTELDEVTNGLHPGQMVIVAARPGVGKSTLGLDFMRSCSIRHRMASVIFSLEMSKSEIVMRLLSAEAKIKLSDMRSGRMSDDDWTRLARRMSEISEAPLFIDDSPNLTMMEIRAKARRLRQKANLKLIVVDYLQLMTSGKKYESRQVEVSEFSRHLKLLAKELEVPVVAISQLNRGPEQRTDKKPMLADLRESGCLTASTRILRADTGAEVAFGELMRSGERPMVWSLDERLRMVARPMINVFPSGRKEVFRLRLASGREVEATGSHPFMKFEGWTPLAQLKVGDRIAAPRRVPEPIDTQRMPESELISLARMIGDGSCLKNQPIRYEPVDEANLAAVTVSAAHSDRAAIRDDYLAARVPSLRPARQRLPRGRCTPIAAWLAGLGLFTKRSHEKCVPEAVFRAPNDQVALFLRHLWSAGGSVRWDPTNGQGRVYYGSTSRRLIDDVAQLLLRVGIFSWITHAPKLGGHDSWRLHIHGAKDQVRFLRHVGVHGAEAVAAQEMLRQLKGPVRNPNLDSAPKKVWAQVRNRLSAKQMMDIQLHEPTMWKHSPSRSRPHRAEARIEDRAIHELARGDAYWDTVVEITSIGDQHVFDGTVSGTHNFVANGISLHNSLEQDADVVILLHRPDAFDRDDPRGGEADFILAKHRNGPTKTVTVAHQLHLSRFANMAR

[16] = inhibitors of intracellular T. cruzi replication, confirmation, NIH3T3 host cells, beta-gal luminescence (AID 2044); type: functional, cell-based;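 also: intracellular parasites grown in NIH/3T3 mouse fibroblasts as host cells; luminescent beta-galactosidase reporter signal from transgenic T. cruzi replicating inside host cells; inhibitors lower the luminescence signal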
[17] = molecular target: G2/mitotic-specific cyclin-B1 (Homo sapiens, UniProt P14635); test: Counterscreen assay for inhibitors of Wee1 degradation: dose response cell-based assay to identify inhibitors of cyclin B degradation. [Related pubchem assays: 1410, 1321 ]; type: functional
Chain of G2/mitotic-specific cyclin-B1 (P14635 whole entry): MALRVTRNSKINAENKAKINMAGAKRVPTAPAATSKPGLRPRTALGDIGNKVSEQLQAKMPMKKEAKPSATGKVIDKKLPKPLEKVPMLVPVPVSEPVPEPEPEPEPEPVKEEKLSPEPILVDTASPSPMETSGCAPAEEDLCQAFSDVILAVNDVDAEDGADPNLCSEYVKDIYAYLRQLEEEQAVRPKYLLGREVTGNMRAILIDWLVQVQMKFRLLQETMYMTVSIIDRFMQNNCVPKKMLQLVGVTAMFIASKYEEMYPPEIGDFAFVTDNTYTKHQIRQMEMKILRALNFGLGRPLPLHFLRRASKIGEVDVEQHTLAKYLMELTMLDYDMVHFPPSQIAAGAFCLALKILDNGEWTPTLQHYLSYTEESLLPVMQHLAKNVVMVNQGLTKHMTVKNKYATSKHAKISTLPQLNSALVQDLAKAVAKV

T4 sequence (P0DMV8 whole entry): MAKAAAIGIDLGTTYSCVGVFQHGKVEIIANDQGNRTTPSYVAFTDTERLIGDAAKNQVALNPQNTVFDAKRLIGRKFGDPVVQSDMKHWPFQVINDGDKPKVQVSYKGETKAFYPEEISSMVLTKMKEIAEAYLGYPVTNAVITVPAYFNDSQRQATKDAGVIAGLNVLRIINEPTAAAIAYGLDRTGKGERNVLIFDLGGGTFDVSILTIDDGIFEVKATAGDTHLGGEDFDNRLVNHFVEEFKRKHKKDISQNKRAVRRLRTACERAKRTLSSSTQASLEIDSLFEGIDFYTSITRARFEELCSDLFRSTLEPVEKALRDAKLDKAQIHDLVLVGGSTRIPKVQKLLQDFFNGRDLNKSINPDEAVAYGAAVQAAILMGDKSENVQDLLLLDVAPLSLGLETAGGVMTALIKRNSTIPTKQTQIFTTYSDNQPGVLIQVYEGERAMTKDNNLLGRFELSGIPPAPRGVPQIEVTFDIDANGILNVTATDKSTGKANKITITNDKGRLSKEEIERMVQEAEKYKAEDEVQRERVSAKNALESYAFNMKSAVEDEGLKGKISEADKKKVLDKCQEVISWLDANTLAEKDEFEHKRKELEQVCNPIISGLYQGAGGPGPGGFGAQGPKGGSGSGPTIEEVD
Chain of Wee1-like protein kinase (P30291 whole entry): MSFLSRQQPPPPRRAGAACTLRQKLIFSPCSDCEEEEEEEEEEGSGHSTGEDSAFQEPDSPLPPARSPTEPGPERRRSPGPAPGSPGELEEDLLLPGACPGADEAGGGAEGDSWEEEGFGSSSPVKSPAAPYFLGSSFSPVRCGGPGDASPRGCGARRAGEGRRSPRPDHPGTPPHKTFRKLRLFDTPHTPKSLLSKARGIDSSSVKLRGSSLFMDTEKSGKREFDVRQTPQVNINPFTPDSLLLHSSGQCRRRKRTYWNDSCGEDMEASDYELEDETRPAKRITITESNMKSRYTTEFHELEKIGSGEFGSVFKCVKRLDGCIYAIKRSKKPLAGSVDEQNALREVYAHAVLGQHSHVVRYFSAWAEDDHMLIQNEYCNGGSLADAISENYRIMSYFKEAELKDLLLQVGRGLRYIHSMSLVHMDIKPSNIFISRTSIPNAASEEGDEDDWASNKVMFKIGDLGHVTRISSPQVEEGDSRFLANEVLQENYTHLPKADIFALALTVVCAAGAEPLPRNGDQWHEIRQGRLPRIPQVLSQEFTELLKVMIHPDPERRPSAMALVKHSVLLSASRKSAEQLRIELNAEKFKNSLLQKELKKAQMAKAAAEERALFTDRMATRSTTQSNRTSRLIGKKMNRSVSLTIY
Chain of E3 ubiquitin-protein ligase Mdm2 (Q00987 whole entry): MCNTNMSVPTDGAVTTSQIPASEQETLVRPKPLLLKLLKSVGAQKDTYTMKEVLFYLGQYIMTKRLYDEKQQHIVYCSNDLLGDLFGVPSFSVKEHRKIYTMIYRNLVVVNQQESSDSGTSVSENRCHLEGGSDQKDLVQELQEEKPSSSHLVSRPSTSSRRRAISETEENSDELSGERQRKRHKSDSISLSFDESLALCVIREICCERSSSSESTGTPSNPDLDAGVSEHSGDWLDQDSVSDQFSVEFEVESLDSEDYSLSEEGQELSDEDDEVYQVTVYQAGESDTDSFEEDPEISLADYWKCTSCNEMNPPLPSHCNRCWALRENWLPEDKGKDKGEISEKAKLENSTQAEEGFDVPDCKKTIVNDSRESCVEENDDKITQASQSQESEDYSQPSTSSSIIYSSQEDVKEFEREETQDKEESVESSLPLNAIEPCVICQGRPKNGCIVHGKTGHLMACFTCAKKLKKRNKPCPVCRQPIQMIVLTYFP

Cc1ccc(SCC(=O)N2c3ccccc3Sc3ccccc32)cc1
EC50 (Streptococcus [1]): > 150 µM (not active)
EC50 (Streptokinase A): 10.9 µM (active)
EC50 [2]: > 150 µM (not active)
EC50 (Streptococcus [3]): > 500 µM (not active)

CCOn1c(=O)c(-c2cc3ccccc3o2)[n+]([O-])c2ccccc21
EC50 [4]: > 99 µM (inactive)
EC50 [5]: 30.9 µM (inactive)
EC50 [6]: 180 µM (inconclusive)
IC50 [7]: > 100 µM (not active)
IC50 [8]: > 100 µM (not active)
EC50 [9]: 13.4 µM (inconclusive)

CCOC(=O)C1=C(c2ccccc2)O/C(=C(/C#N)C(F)(F)F)S1
EC50 [10]: 4.88 µM (active)
EC50 (Protein RecA): 0.723 µM (active)
EC50 [11]: 6.24 µM (inconclusive)
EC50 (BJ [12]): 5.47 µM (inconclusive)
EC50 (Wee1-like protein kinase): > 1.84 µM (active)
EC50 (BJ [13]): 4.58 µM (inconclusive)
EC50 [14]: 0.84 µM (active)
AC50 [15]: > 380 µM (inactive)
EC50 [16]: 2.37 µM (active)
EC50 [17]: > 1.84 µM (active)
